# According to publication PMC6451745, “Development and dosimetry of ^203Pb/^212Pb-labelled PSMA ligands: bringing “the lead” into PSMA-targeted alpha therapy?” (European Journal of Nuclear Medicine and Molecular Imaging, 2019):
# Like-named read-outs stand apart in the source and are kept apart here.
# Key:
# C4-2 tumour-bearing mice [1] = assay: Biodistribution (organ distribution) in tumour-bearing mice; type: in vivo; conditions: for Organ distribution, Kidneys: 0.025 nmol i.v., n = 3
# Description: (§1) The in vivo experiments were carried out in accordance with the laws on animal welfare of the Federal Republic of Germany. For imaging and biodistribution studies, male BALB/c nu/nu mice (20–25 g; Charles River) bearing C4-2 tumour xenografts were used. The mice were inoculated subcutaneously in the right trunk with 5 × 10^6 C4-2 cells in 50% Matrigel in Opti-MEM (1×). For small-animal imaging the mice were anaesthetized with 2% sevoflurane, and then 0.1 nmol (1.0 MBq) of the respective ^203Pb ligand was injected into a tail vein. Serial planar scans were performed using a Gamma Imager-sct (Biospace Lab, Paris, France) with a parallel collimator (35 mm/1.8 mm/0.2 mm) after 10 min, 1 h, 4 h and 24 h. Based on the imaging results, compound CA012 was chosen for biodistribution studies. Experiments were performed in triplicate. For biodistribution, 0.025 nmol (1 MBq) of labelled compound per mouse was administered by injection into a tail vein. After 10 min, 1 h, 4 h and 24 h the mice were killed, the organs were dissected and weighed, and activity was measured using a gamma counter (Packard Cobra Auto-gamma). The organ uptakes were calculated as the percentage of the injected dose per gram of tissue (%ID/g).
# [2] = Stability of ^203Pb-labelled compounds in human serum; type: in vitro ADME; conditions: 37 °C, up to 72 h, radio-HPLC
# Description: The conjugates (1 mM in water, 80 μl, 80 nmol) were added to 400 μl sodium acetate buffer (0.4 M in water, pH 5.0), 10 μl ascorbic acid (20% in water) and 140 μl ^203Pb-chloride solution in 0.04 M HCl, with specific activity approximately 102.6 TBq/g (Lantheus Medical Imaging, North Billerica, MA, USA). The mixture was then heated at 95 °C for 5 min. Labelling was controlled by radio-HPLC. The stability of the ^203Pb-labelled compounds was evaluated in 300 μl human serum at 37 °C for up to 72 h. After precipitation of the serum proteins by addition of two parts acetonitrile, the solution was centrifuged for 5 min at 13,000 rpm (twice) and the supernatant was analysed by radio-HPLC (0–100% MeCN over 5 min, monolith column).
# C4-2 tumour-bearing mice [3] = assay: Planar scintigraphic imaging in tumour-bearing mice; type: in vivo; conditions: ^203Pb-labelled
# Description: as §1
# PSMA [4] = target: T1, PSMA (Homo sapiens, UniProt Q04609); assay: Competitive binding assay on C4-2 cells; conditions: reference ^68Ga-labelled PSMA-HBED-CC dimer (PSMA-10), mean ± SD
# T1 construct: host or cells: C4-2 cells (LNCaP subline)
# Description: (§2) In vitro and in vivo experiments were performed using the PSMA-positive C4-2 cell line, a subline of the LNCaP (lymph node carcinoma of the prostate) cell line (CRL-3314; American Type Culture Collection). C4-2 cells were cultivated in RPMI-1640 (PAN Biotech) supplemented with 10% fetal calf serum and stable glutamine (PAN Biotech). Cells were grown at 37 °C and incubated in humidified air equilibrated with 5% CO2.
# A MultiScreenHTS-DV filter plate was incubated at room temperature with 100 μl phosphate-buffered saline (PBS) containing 1% bovine serum albumin (BSA) per well for 30 min. After removal of the PBS/BSA solution, 1 × 10^5 C4-2 cells in Opti-MEM were added to each well. All nonlabelled compounds were dissolved in 300 μl Opti-MEM at the following concentrations: 0, 0.5, 1, 2.5, 5, 10, 25, 50, 100, 500, 1,000 and 5,000 nM. Subsequently, 3 μl of the radiolabelled compound was added, and 50 μl of this mixture was taken to obtain a solution containing 0.75 nM of the radiolabelled ligand. After 45 min incubation at 37 °C, the cells were washed twice with PBS, the radioactivity accumulated in the cells was collected, and the remaining radioactivity was measured in a gamma counter. The inhibitory potency was determined using ^68Ga-labelled PSMA-HBED-CC dimer (i.e. PSMA-10) as the reference. The 50% inhibitory concentration was calculated using a nonlinear regression algorithm (GraphPad Prism 5.01 software). The experiments were performed in quadruplicate.
# C4-2 cells = assay: Determination of specific internalization ratio; type: cell-based
# Description: as §2
# For determination of the specific internalization ratio, 24-well plates were incubated for 20 min with 0.1% poly-L-lysine in PBS at room temperature and washed once with PBS. In the next step, 1 ml RPMI containing 1 × 10^5 C4-2 cells was added to each well and incubated overnight. The conditions during the experiment for each compound were: incubation at 37 °C or 4 °C with or without receptor blocking via 2-(phosphonomethyl)pentanedioic acid (2-PMPA; Axxora) at a final concentration of 500 μM. The cells were then incubated with 250 μl of a 30 nM solution of ^203Pb-labelled compound. The plates were incubated either for 45 min in a water bath at 37 °C or on ice at 4 °C. The cells were then washed three times with 1 ml ice-cold PBS and incubated with 0.5 ml glycine (50 mM in HCl, pH 2.8) for 5 min. After an additional washing step with 1 ml ice-cold PBS, the cells were lysed with 0.5 ml 0.3 M NaOH and collected, and the radioactivity was measured with a gamma counter for 1 min. The specific cellular uptake was determined as the percentage of initially added radioactivity bound per 10^6 cells (%IA/10^6 cells) by subtraction of the respective uptake under blocking conditions. All experiments were performed in triplicate.
# [5] = design: method as in PMID 10755652, doi:10.1039/C39890000145, doi:10.1021/ja00130a008; conditions: cited from earlier work
# [6] = cited from earlier work
# [7] = design: method as in PMID 28891033; conditions: projected treatment activity 1 GBq; cited from earlier work
# PSMA [8] = target: T1, PSMA; design: method as in PMID 25883127; conditions: reference compound; cited from earlier work
# [9] = design: method as in PMID 25883127; conditions: previously determined; cited from earlier work
# [10] = design: method as in PMID 28408529; conditions: projected treatment activity 6–8 MBq; cited from earlier work
# [11] = ^203Pb-labelled compound 30 nM, 45 min, 2-PMPA blocking subtracted, mean ± SD n = 3
# T1 sequence (Q04609 whole entry): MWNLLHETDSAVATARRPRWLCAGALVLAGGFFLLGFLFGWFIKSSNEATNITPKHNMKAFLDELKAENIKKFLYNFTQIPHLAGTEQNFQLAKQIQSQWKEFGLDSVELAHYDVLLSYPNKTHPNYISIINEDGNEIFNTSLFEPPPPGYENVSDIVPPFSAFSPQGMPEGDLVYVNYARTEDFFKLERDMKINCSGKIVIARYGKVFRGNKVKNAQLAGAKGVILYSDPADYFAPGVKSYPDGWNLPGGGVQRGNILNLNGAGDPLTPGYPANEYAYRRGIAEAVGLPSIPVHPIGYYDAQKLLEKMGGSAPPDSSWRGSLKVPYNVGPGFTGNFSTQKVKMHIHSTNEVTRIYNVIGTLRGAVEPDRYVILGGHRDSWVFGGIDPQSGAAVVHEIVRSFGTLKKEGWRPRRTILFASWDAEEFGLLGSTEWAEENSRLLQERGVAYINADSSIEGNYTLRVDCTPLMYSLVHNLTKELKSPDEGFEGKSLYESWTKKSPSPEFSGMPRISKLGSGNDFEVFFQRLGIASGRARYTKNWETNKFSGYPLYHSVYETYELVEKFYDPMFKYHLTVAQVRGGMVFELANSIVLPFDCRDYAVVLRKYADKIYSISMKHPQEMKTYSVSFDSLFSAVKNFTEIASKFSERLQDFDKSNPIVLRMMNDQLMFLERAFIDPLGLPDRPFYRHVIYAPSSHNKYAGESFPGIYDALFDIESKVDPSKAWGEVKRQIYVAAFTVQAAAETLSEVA
smiles,measurement,setting,value
NC(=O)CN1CCN(CC(N)=O)CCN(CC(=O)NCC2CCC(C(=O)NC(Cc3ccc4ccccc4c3)C(=O)NCCCC[C@H](NC(=O)N[C@@H](CCC(=O)O)C(=O)O)C(=O)O)CC2)CCN(CC(N)=O)CC1 (some centres unmarked) [CA012],"Organ distribution, Kidneys","C4-2 tumour-bearing mice [1]; C4-2 tumour-bearing mice, 1 h",5.1 ± 2.5 % ID/g
same,"Organ distribution, Kidneys","C4-2 tumour-bearing mice [1]; C4-2 tumour-bearing mice, 24 h",0.9 ± 0.1 % ID/g
same,specific uptake in tumours versus other organs,"C4-2 tumour-bearing mice [1]; in vivo, C4-2 tumour-bearing mice",higher specific uptake in tumours than in other organs
same,kidney accumulation,"C4-2 tumour-bearing mice [1]; mice, after 24 h",2%
same,stability in human serum,[2],high stability
same,kidney clearance (comparison),C4-2 tumour-bearing mice [3]; Fig. 4,faster kidney clearance than CA009
same,Ki,PSMA [4],24.3 ± 3.7 nM
same,specific ligand-induced internalization,C4-2 cells,15.6 ± 2.1 %IA/10^6 cells
same,Specific cell surface,C4-2 cells; [11],132.1 ± 4.3 %IA/10^6 cells
same,Specific lysate (specific internalization),C4-2 cells; [11],15.6 ± 2.1 %IA/10^6 cells
"NC(=O)CN1CCN(CC(N)=O)CCN(CC(N)=O)CCN(CC(N)=O)CC1 [TCMC, 1,4,7,10-tetra-(2-carbamoyl-methyl)-cyclododecane]",pH at which stable complexes with lead(II) are formed,[5],> 2
O=C(O)CC[C@H](NC(=O)N[C@@H](CCCCNC(=O)C(Cc1ccc2ccccc2c1)NC(=O)C1CCC(CNC(=O)CN2CCN(CC(=O)O)CCN(CC(=O)O)CCN(CC(=O)O)CC2)CC1)C(=O)O)C(=O)O.[68Ga+3] (some centres unmarked) [^68Ga-PSMA-617],tumour uptake,[6]; mice,8.5 ± 4.1 %ID/g
O=C(O)CC[C@H](NC(=O)N[C@@H](CCCCNC(=O)C(Cc1ccc2ccccc2c1)NC(=O)C1CCC(CNC(=O)CN2CCN(CC(=O)O)CCN(CC(=O)O)CCN(CC(=O)O)CC2)CC1)C(=O)O)C(=O)O.[213Bi+3] (some centres unmarked) [^213Bi-PSMA-617],"Tissue equivalent dose, Kidneys",[7],8.1 SvRBE5
same,"Tissue equivalent dose, Red marrow",[7],0.5 SvRBE5
same,"Tissue equivalent dose, Salivary glands",[7],8.1 SvRBE5
O=C(O)CC[C@H](NC(=O)N[C@@H](CCCCNC(=O)[C@H](Cc1ccc2ccccc2c1)NC(=O)[C@H]1CC[C@H](CNC(=O)CN2CCN(CC(=O)O)CCN(CC(=O)O)CCN(CC(=O)O)CC2)CC1)C(=O)O)C(=O)O [PSMA-617],kidney accumulation,"[6]; mice, after 24 h",1%
same,kidney accumulation,"[6]; mouse, in vivo, 1 h",113.3 ± 24.4 %ID/g
same,affinity (in words),PSMA [8],single-digit affinity
NC(=O)CN1CCN(CC(N)=O)CCN(CC(=O)NC(Cc2ccc3ccccc3c2)C(=O)NCCCC[C@H](NC(=O)N[C@@H](CCC(=O)O)C(=O)O)C(=O)O)CCN(CC(N)=O)CC1 (some centres unmarked) [CA011],stability in human serum,[2],high stability
same,tumour uptake in mice (planar scintigraphy),"C4-2 tumour-bearing mice [3]; 1 h after injection, Fig. 3",low tumour uptake
same,Ki,PSMA [4],28.1 ± 2.9 nM
O=C([O-])CN1CCN(CC(=O)[O-])CCN(CC(=O)NCC2CCC(C(=O)N[C@@H](Cc3ccc4ccccc4c3)C(=O)NCCCC[C@H](NC(=O)N[C@@H](CCC(=O)O)C(=O)O)C(=O)O)CC2)CCN(CC(=O)[O-])CC1.[177Lu+3] (some centres unmarked) [^177Lu-PSMA-617],specific internalization,[9],18 %ID per 10^6cells
"O=C(O)CN1CCN(CC(=O)O)CCN(CC(=O)O)CCN(CC(=O)O)CC1 [DOTA, 1,4,7,10-tetraazacyclododecane-1,4,7,10-tetraacetic acid]",pH at which stable complexes with lead(II) are formed,[5],> 3.5
O=C([O-])CC[C@H](NC(=O)N[C@@H](CCCCNC(=O)[C@H](Cc1ccc2ccccc2c1)NC(=O)C1CCC(CNC(=O)CN2CCN(CC(=O)[O-])CCN(CC(=O)[O-])CCN(CC(=O)[O-])CC2)CC1)C(=O)[O-])C(=O)[O-].[225Ac].[H+].[H+].[H+] (some centres unmarked) [^225Ac-PSMA-617],"Tissue equivalent dose, Kidneys",[10],4.2 SvRBE5
same,"Tissue equivalent dose, Red marrow",[10],0.3 SvRBE5
same,"Tissue equivalent dose, Salivary glands",[10],13.8 SvRBE5
